“Also recorded” adds a separate entry of the source.
Legend:
[1] = Base-induced decomposition of hydroxy dioxetanes (first order decay of chemiluminescence); type: physicochemical; conditions: 37° C.; 0.2M 2-methyl-2-amino-1-propanol buffer pH 9.6, 0.88 mM Mg+2, 1.0 mg/mL Enhancer A
Method: (§1) Calf intestinal alkaline phosphatase (AP) was obtained from Biozyme (San Diego, Calif.). Other chemical reagents were obtained from Aldrich Chemical Co. (Milwaukee). Nuclear magnetic resonance (NMR) spectra were obtained on a Varian Gemini 300 spectrometer as solutions in D2 O or CDCl3. Chemiluminescence intensities and rate measurements were performed using either a Turner Designs (Sunnyvale, Calif.) model TD-20e luminometer, a Luminoskan luminometer (Helsinki, Finland), a charge-coupled device camera luminometer constructed in the inventors' laboratory or a luminometer constructed in the inventors' laboratory consisting of an electrically heated sample block, an optical fiber and associated optics for light collection and a photomultiplier tube. Temperature control of samples analyzed in the commercial luminometers was achieved by means of a circulating bath connected to the instrument. Quantitative measurement of light intensities on the Turner luminometer was extended beyond the 10^4 linear range of the detector by a neutral density filter. Data collection from each of the instruments was controlled by an Apple MacIntosh SE/30 computer using the LUMISOFT data reduction program (Lumigen).
The first order decay of chemiluminescence of dioxetanes 1 and 3 in 0.2M 2-methyl-2-amino-1-propanol buffer, pH 9.6 containing 0.88 mM Mg^+2 and 1.0 mg/mL of Enhancer A at 37° C. was measured in a luminometer. The half-life of decay of chemiluminescence (t1/2) of dioxetanes 1 and 3 in 0.2M 2-methyl-2-amino-1-propanol buffer, pH 9.6 containing 0.88 mM Mg^+2 and 1.0 mg/mL of Enhancer A correlate with the times required to reach the maximum light intensity (Imax) in the alkaline phosphatase-triggered decomposition of dioxetanes 2 and 5 in the same buffer solution. The half-life of decay of luminescence of the hydroxy dioxetane homologous to a phosphate-protected dioxetane, therefore, is useful for predicting the grow-in kinetics of light emission for phosphatase triggering of the corresponding phosphate dioxetane. In particular, hydroxy dioxetanes which show a faster t1/2 than dioxetane 1 indicate that the corresponding phosphate dioxetanes are expected to reach Imax more quickly. Other hydroxy dioxetanes (7-9) were then examined under the same conditions.

[2] = tested on: Calf intestinal alkaline phosphatase (AP); assay: Effect of enhancer concentration on AP-induced chemiluminescence intensity and kinetics; comparison of optimized solutions; type: biochemical
Method: FIG. 1 is a graph showing the time profiles of the chemiluminescence intensity emitted by 100 μL of a reagent containing dioxetane 5 (4-(2,2,2-trifluoroethoxy)-4-(3-phosphoryloxyphenyl)spiro[1,2-dioxetane-3,2'-tricyclo-[3.3.1.1^3,7 ]decane] disodium salt) and various amounts of an enhancer triggered at 37° C. by addition of 1.12×10^-17 mol of alkaline phosphatase (AP). The reagent consists of a 0.33 mM solution of the dioxetane 5 in 0.2M 2-amino-2-methyl-1-propanol buffer, pH 9.6 containing 0.1, 0.25, 0.5 or 1 mg/mL of 1-(tri-n-octylphosphoniummethyl)-4-(tri-n-butyl-phosphoniummethyl)benzene dichloride (Enhancer A).
FIG. 2 is a graph showing a comparison of the time profile of the chemiluminescence intensity emitted by 100 μL of a reagent containing dioxetane 5 and various amounts of an enhancer triggered at 37° C. by addition of 1.12×10^-17 mol of AP. The reagents consist of a 0.33 mM solution of dioxetane 5 in 0.2M 2-amino-2-methyl-1-propanol buffer, pH 9.6 containing 0.01, 0.025, 0.1 or 0.5 mg/mL of polyvinylbenzyltributylphosphonium chloride co-polyvinylbenzyltri-octylphosphonium chloride (containing a 3:1 ratio of tributyl:trioctyl groups), Enhancer B, the preparation of which is described in European Patent Application 561,033 published Sep. 22, 1993.
FIG. 3 is a graph showing a comparison of the time profile of the chemiluminescence intensity emitted by 100 μL of enhanced reagents containing either dioxetane 2 (LUMIGEN PPD, Lumigen, Inc., Southfield, Mich.) or 5 triggered at 37° C. by addition of 1.12×10^-17 mol of AP. The reagents consist of 1) a 0.33 mM solution of dioxetane 2 in 0.2M 2-amino-2-methyl-1-propanol buffer, pH 9.6 containing 1.0 mg/mL of the enhancer 1-(tri-n-octylphosphoniummethyl)-4-(tri-n-butylphosphoniummethyl) benzene dichloride, and 2) a 0.33 mM solution of dioxetane 5 in 0.2M 2-amino-2-methyl-1-propanol buffer, pH 9.6 containing 0.1 mg/mL of the same enhancer.
FIG. 4 is a graph showing a comparison of the time profile of the chemiluminescence intensity emitted by 100 μL of another pair of enhanced reagents containing either dioxetane 2 or 5 triggered at 37° C. by addition of 1.12×10^-17 mol of AP. The reagents consist of 1) a 0.33 mM solution of dioxetane 2 in 0.2M 2-amino-2-methyl-1-propanol buffer, pH 9.6 containing 0.5 mg/mL of Enhancer B and 2) a 0.33 mM solution of dioxetane 5 in 0.2M 2-amino-2-methyl-1-propanol buffer, pH 9.6 containing 0.25 mg/mL of the same enhancer.
as §1
A concentration dependence study was conducted in an effort to find the optimum amount of enhancer A to use in the alkaline phosphatase-induced chemiluminescent reaction of dioxetane 5. Solutions of dioxetane 5 in 0.2M 2-methyl-2-amino-1-propanol buffer, pH 9.6 containing 0.88 mM Mg^+2 and 1, 0.5, 0.25 or 0.1 mg/mL of Enhancer A were prepared. […]

[3] = tested on: Calf intestinal alkaline phosphatase (AP); assay: Kinetic profile of alkaline phosphatase-triggered chemiluminescence (time to 95% of maximum intensity); type: biochemical; conditions: for Time to Reach 95% of Maximum Light Intensity from Alkaline Phosphatase-Triggering: 37° C.
Method: as §1
The improvement in detection speed afforded by compositions containing the phosphate dioxetane 5 is shown in Table 2 through a comparison with dioxetane 2 of the times to reach 95% of the maximum chemiluminescence intensities produced by reaction with AP. Three different reagent compositions containing either dioxetane 2, 4-methoxy-4-(3-phosphoryloxy-phenyl)spiro[1,2-dioxetane-3,2'-tricyclo-[3.3.1.1^3,7 ]decane], disodium salt, (LUMIGEN PPD, Lumigen, Inc.) or 5 were reacted at 37° C. with AP. Composition A consists of 0.33 mM dioxetane in 0.2M 2-methyl-2-amino-1-propanol buffer (pH 9.6) containing 1.0 mg/mL 1-(tri-n-octylphosphoniummethyl)-4-(tri-n-butylphosphonium-methyl) benzene dichloride (Enhancer A); 100 μL portions were reacted with 3.36×10^-16 mol of enzyme. Composition B consists of 0.33 mM dioxetane in 0.2M 2-methyl-2-amino-1-propanol buffer (pH 9.6) containing 0.5 mg/mL of polyvinylbenzyl-tributylphosphon ium chloride co-polyvinylbenzyltrioctyl-phosphonium chloride (containing a 3:1 ratio of tributyl:trioctyl groups) the preparation of which is described in European Patent Application 561,033 published Sep. 22, 1993 (Enhancer B); 100 μL portions were reacted with 3.36×10^-16 mol of enzyme. Composition C consists of 0.33 mM dioxetane in 0.2M 2-methyl-2-amino-1-propanol buffer (pH 9.6); 500 μL portions were reacted with 1.12×10^-15 mol of enzyme.

[4] = tested on: Calf intestinal alkaline phosphatase (AP); assay: Relative chemiluminescence quantum yields (total light after complete dephosphorylation by AP); type: biochemical
Method: as §1
The relative chemiluminescence quantum yields of dioxetanes 2 and 5 were determined in formulations containing 1 mg/mL or 0.1 mg/mL of Enhancer A in 0.2M 2-amino-2-methyl- 1-propanol buffer, pH 9.6 containing 0.88 mM Mg^+2. A 100 μL aliquot of each reagent was completely dephosphorylated by addition of 3.36×10^-13 mol of alkaline phosphatase. The total amount of light emitted in Relative Light Units (RLU) was integrated until light emission ceased. A similar comparison was also made with 500 μL portions of formulations without any enhancer using 0.75M 2-amino-2-methyl-1-propanol buffer, pH 9.6 containing 0.88 mM Mg^+2.

[5] = tested on: Calf intestinal alkaline phosphatase (AP); assay: Chemiluminescent detection of alkaline phosphatase on membrane; type: biochemical; conditions: 1 mg/mL Enhancer A, pH 9.6, 0.33 mM dioxetane, AP 1.1 fmol to 1.1 amol, X-ray film (FIG. 6)
Method: FIG. 6 is a digitally scanned image of an X-ray film from an experiment detecting alkaline phosphatase on a membrane with chemiluminescence. Solutions of alkaline phosphatase in water containing from 1.1×10^-15 to 1.1×10^-18 mol were applied to identical nylon membranes (Micron Separations Inc., Westboro, Mass). The membranes were air dried for 5 min and soaked briefly with a reagent containing 1 mg/mL of Enhancer A in 0.2M 2-amino-2-methyl-1-propanol buffer, pH 9.6 containing 0.88 mM MgCl and either 0.33 mM dioxetane 2 or 0.33 mM dioxetane 5. The membranes were placed between transparent plastic sheets and exposed to X-ray film (Kodak X-OMAT AR, Rochester, N.Y.).
Calf intestinal alkaline phosphatase (AP) was obtained from Biozyme (San Diego, Calif.). Other chemical reagents were obtained from Aldrich Chemical Co. (Milwaukee). Nuclear magnetic resonance (NMR) spectra were obtained on a Varian Gemini 300 spectrometer as solutions in D2 O or CDCl3. […] Temperature control of samples analyzed in the commercial luminometers was achieved by means of a circulating bath connected to the instrument. Quantitative measurement of light intensities on the Turner luminometer was extended beyond the 10^4 linear range of the detector by a neutral density filter. […]

[6] = Composition A: 0.33 mM dioxetane, 0.2M 2-methyl-2-amino-1-propanol buffer pH 9.6, 1.0 mg/mL Enhancer A, 100 μL, 3.36×10^-16 mol AP
[7] = Composition B: 0.33 mM dioxetane, buffer pH 9.6, 0.5 mg/mL Enhancer B, 100 μL, 3.36×10^-16 mol AP
[8] = Composition C: 0.33 mM dioxetane, buffer pH 9.6, no enhancer, 500 μL, 1.12×10^-15 mol AP
[9] = Enhancer A 1 mg/mL, 100 μL, 0.2M buffer pH 9.6, 3.36×10^-13 mol AP
[10] = No enhancer, 500 μL, 0.75M 2-amino-2-methyl-1-propanol buffer pH 9.6, 0.88 mM Mg+2

Row | Compound | t1/2 of decay of chemiluminescence [1] [min] | Time to Reach 95% of Maximum Light Intensity from Alkaline Phosphatase-Triggering [3, 6] [min] | Time to Reach 95% of Maximum Light Intensity from Alkaline Phosphatase-Triggering [3, 7] [min] | Time to Reach 95% of Maximum Light Intensity from Alkaline Phosphatase-Triggering [3, 8] [min] | Total Light Intensity [4, 9] | Total Light Intensity [4, 10] | also measured
1 | COC1(c2cccc(O)c2)OOC12C1CC3CC(C1)CC2C3 (stereo not drawn) [Dioxetane 1] | 15.9 |  |  |  |  |  | 
2 | Oc1cccc(C2(OCCF)OOC23C2CC4CC(C2)CC3C4)c1 (stereo not drawn) [Dioxetane 8] | 6.1 |  |  |  |  |  | 
3 | COC1(c2cccc(OP(=O)(O)O)c2)OOC12C1CC3CC(C1)CC2C3 (stereo not drawn) [Dioxetane 2] |  | 32 | 37 | 6 | 9.24 × 10^6 RLU | 4.41 × 10^4 RLU | Rise time to maximum light intensity ([2]; Enhancer B reduced from 3 mg/mL to 0.1 mg/mL): essentially constant at an hour or more; Rise time to maximum light intensity ([2]; all concentrations of Enhancer A from 0.1 mg/mL to 3 mg/mL): an hour or more
4 | O=P(O)(O)Oc1cccc(C2(OCC(F)(F)F)OOC23C2CC4CC(C2)CC3C4)c1 (stereo not drawn) [Dioxetane 5] |  | 6 | 4.3 | 4.5 | 1.23 × 10^7 RLU | 9.65 × 10^4 RLU | Chemiluminescence intensity and time profile compared to dioxetane 2 (1 mg/mL Enhancer A) ([2]; 0.33 mM dioxetane 5 with 0.1 mg/mL Enhancer A, 37° C., 1.12×10^-17 mol AP (FIG. 3)): reaches a significantly higher maximum intensity and reaches a plateau much more rapidly; also recorded: more intense chemiluminescence under these conditions but also a shorter delay until the maximum intensity is reached; Chemiluminescence intensity and time profile compared to dioxetane 2 (0.5 mg/mL Enhancer B) ([2]; 0.33 mM dioxetane 5 with 0.25 mg/mL Enhancer B, 37° C., 1.12×10^-17 mol AP (FIG. 4)): reaches a higher light intensity in the first 15 minutes; also recorded: a higher light intensity within the first 15 min; Plateau light intensity and rise time vs. amount of Enhancer A ([2]; Enhancer A 1, 0.5, 0.25 or 0.1 mg/mL, pH 9.6, 37° C., 1.12×10^-17 mol AP (FIG. 1)): increasingly higher plateau light intensities and slower rise times as the amount of enhancer is reduced; Rise time vs. amount of Enhancer B ([2]; Enhancer B 0.5 to 0.01 mg/mL, pH 9.6, 37° C., 1.12×10^-17 mol AP (FIG. 2)): slower rise times as the amount of enhancer is reduced from 0.5 to 0.01 mg/mL; Plateau light intensity compared to dioxetane 2 ([3]; Composition A): higher plateau light intensity; Image intensity and detection sensitivity on nylon membrane compared to dioxetane 2 [5]: more intense images and better detection sensitivity; Total Light Intensity ([4]; Enhancer A 0.1 mg/mL, 100 μL, 0.2M buffer pH 9.6, 3.36×10^-13 mol AP): 1.01 × 10^7 RLU; Total light produced compared to dioxetane 2 ([4]; with or without Enhancer A): produces more light than dioxetane 2
5 | Oc1cccc(C2(OCC(F)(F)F)OOC23C2CC4CC(C2)CC3C4)c1 (stereo not drawn) [Dioxetane 3] | 2.0 |  |  |  |  |  | 
6 | Oc1cccc(C2(OCC(F)F)OOC23C2CC4CC(C2)CC3C4)c1 (stereo not drawn) [Dioxetane 7] | 2.8 |  |  |  |  |  | 

Reference: patent publication US5773628A, “1,2-dioxetane compounds with haloalkoxy groups, methods preparation and use” (Tropix, Inc., priority 1994, dated 1998)
